Laboratory results: US20040110206A1, “Waveform modulated light emitting diode (LED) light source for use in a method of and apparatus for screening to identify drug candidates” (Bio TechPlex Corporation, priority 2002, published 2004)

Tested on: normal human bronchial epithelial cells (NHBE)
Assay: Cumulative dose kinetic responses of intracellular Ca++, Cl- and cell membrane potential (simultaneous Fluo-3, di-MEQ and RH421 fluorescence photon counting)
Format: cell-based
Description: Normal human bronchial/tracheal epithelial cells (NHBE, Clonetics) were cultured in T-25 cm^2 flasks at 37° C., 5% CO2 using Bronchial/Tracheal Epithelial Cell Growth Medium containing Retinoic Acid (BEGM, w/RA, Clonetics). When the NHBE cells in the T-25 flasks reached 60%-80% confluency, the cells were passaged using a seeding density of 3500 cells/cm^2. A portion of the cells was passaged in T-25 flasks again while the remaining cells were seeded on UV-exposed Vitrogen (pH balanced 1:1 BEGM to Vitrogen) coated 4-well cover glass chambers (LabTek II). NHBE cells normally attached to the collagen-coated cover glass chamber within 24 hrs. Prior to these cells reaching 60% confluency, they were used for all the experiments described below. Cells used in all the experiments were either 2nd or 3rd passage cells maintained in Bronchial/Tracheal Epithelial Cell Growth Medium with Retinoic Acid (BEGM, w/RA, Clonetics).
The following procedures for loading the cells with fluorophore were employed. Balanced Hank's (BH) solution without phenol red was used as the medium for all the fluorophore preparations and cell washings unless stated otherwise. Fluo-3 (a Ca^++ indicator), di-MEQ (a Cl^− indicator) and RH421 (a cell membrane potential indicator) were loaded into cells sequentially at room temperature. Cells were first incubated with 8 μM Fluo-3 solution for 60 minutes, followed by incubating with 50 μM di-MEQ for 5 minutes and then finally with 10 μM RH421 for 5 minutes. Extraneous dyes were washed with BH solution between each fluorophore loading procedure. The cells were allowed to stabilize in BEGM for a minimum of 15 minutes at room temperature prior to the beginning of each experiment.
Experiments were performed at room temperature. All tested agents were prepared in Balanced Hank's Solution. One of the wells of the cover glass chamber was placed on the stage of the inverted microscope and the cells loaded with the fluorophores were visually focused with the violet, green and orange emitted light from the cells approximately in the same focal plane. At a sampling frequency of 100 Hz, cells with the following photon counts were chosen for the study: 20 to 50 counts per channel (cpc) for Ca^++ fluorescence, 70 to 200 cpc for Cl^− fluorescence, and 20 to 50 cpc for cell membrane potential fluorescence. After establishing a 2 minute baseline, increasing doses of the agent of interest were added topically to the wells 2 minutes apart. At the end of each experiment, a toxic dose of the agent of interest was added to the sample to either shrink or swell the cells beyond their normal cell volume regulatory range. This caused the fluorescence signals of each of these fluorophores to reach either maximum or minimum values. […] Background fluorescence was recorded using a cell free area of the same well. If the signal to background ratio was not higher than a factor of 10, the experiments were also discarded.
The kinetic responses were measured as photon counts acquired in 10 ms intervals over>800 seconds. […] The correlation of these events and their kinetics, observations that can only be made with the present invention, provides unique insights into the mechanism by which Glibenclamide affects the cells.
UTP is a ligand to the p2Y receptor. The kinetic responses were measured as photon counts acquired in 10 ms intervals over >800 seconds.
Hyperpolarization of the cell membrane can also be induced via different cellular mechanisms such as by decreasing intracellular potassium. […] The kinetic responses were measured as photon counts acquired in 10 ms intervals over >900 seconds. It should be noted that the relative potencies of these agents in terms of the mechanisms for eliciting the temporal responses, the duration of the agent actions and the magnitude of hyperpolarization of the cell membrane can be compared and monitored for the first time. […]

Row | Compound | intracellular Ca++ response (500 μM) | intracellular Cl- response (500 μM) | membrane potential response (500 μM) | cell membrane potential response (Glibenclamide 25 μM to 500 μM cumulative) | [Cl-]i response (Glibenclamide 25 μM to 500 μM cumulative, MEQ fluorescence inversely proportional to [Cl-]i) | intracellular Ca++ response (concentrations below 500 μM) | intracellular Cl- response (concentrations below 500 μM) | membrane potential response (concentrations below 500 μM) | intracellular Cl- response (0.1 mM and 1 mM) | membrane potential response (0.1 mM and 1 mM) | intracellular Ca++ response (0.1 mM and 1 mM, increase followed by a measurable rate of decline)
1 | COc1ccc(Cl)cc1C(=O)NCCc1ccc(S(=O)(=O)NC(=O)NC2CCCCC2)cc1 [Glibenclamide] | rapid increase | simultaneous drop | simultaneous increase | hyperpolarized the cell membrane | increased | little affected | declines as Glibenclamide concentration increases | little affected |  |  | 
2 | O=c1ccn([C@@H]2O[C@H](COP(=O)(O)OP(=O)(O)OP(=O)(O)O)[C@@H](O)[C@H]2O)c(=O)[nH]1 [UTP, uridine triphosphate] |  |  |  |  |  |  |  |  | essentially no changes | essentially no changes | rapid increase
